Measured values from publication PMC6787163, “Systematic Dual Targeting of Dendritic Cell C-Type Lectin Receptor DC-SIGN and TLR7 Using a Trifunctional Mannosylated Antigen” (Frontiers in Chemistry, 2019).

Assays:
[1] = target: T1, DC-SIGN ECD (Homo sapiens, UniProt Q9NNX6); test: SPR competition (inhibition) assay, DC-SIGN ECD on BSA-mannotriose surface; assay type: binding; details: DC-SIGN ECD 20 μM
T1 construct: The ECD of DC-SIGN (residues 66–404) was overexpressed and purified as previously described; made in house
T1 sequence (Q9NNX6 66-404): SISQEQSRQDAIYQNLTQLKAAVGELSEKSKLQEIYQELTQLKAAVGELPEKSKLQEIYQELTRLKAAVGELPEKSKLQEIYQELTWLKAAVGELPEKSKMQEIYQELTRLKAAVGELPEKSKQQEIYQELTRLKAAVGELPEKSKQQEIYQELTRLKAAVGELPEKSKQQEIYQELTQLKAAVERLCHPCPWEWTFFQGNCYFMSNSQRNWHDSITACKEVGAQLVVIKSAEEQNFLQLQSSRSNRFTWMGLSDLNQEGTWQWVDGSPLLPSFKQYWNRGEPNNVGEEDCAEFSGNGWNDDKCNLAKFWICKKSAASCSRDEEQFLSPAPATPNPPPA
Protocol: (§1) The affinity of the clusters for the extracellular domain (ECD) of the DC-SIGN receptor (DC-SIGN ECD) was estimated via surface plasmon resonance (SPR) assays (Tabarani et al., [2009]). The apparent Kd was calculated in direct interaction mode using a surface functionalized in an oriented manner with DC-SIGN ECD. In this assay, tetrameric DC-SIGN ECD is attached to the surface of the sensor chip via the N-terminus of its neck oligomerization domain, thus presenting its four carbohydrate recognition domains toward the solvent, realistically mimicking the presentation of the receptor on cell surface (Porkolab et al., [2019]). For some of the low affinity ligands, in the mM range, it was not possible to determine their affinity with this assay, and therefore a competition experiment was performed providing IC50 values (Timpano et al., [2008]) (Figure 3A). […] When comparing equivalent clusters, the α1,2-di-mannoside (B series) bound with the highest affinity (Figure 3A). […] A potential explanation for this effect could be that the spacing of clusters is more important for the larger tri-mannosides.
The ECD of DC-SIGN (residues 66–404) was overexpressed and purified as previously described (Tabarani et al., [2009]). The DC-SIGN S-ECD construct used for direct interaction experiment (see below) has been overexpressed and purified as described elsewhere (Porkolab et al., [2019]). The SPR competition experiments were performed on a BIAcore T200 using a CM3 series S sensor chip. Flow cells were activated as previously described (Halary et al., [2002]). Flow cell 1 was functionalized with BSA, blocked with ethanolamine and subsequently used as a control surface. Flow cells 2 and 3 were treated with BSA-Man α1-3[Manα1-6]Man (Dextra) (60 μg/mL) in 10 mM NaOAc pH 4 and blocked with ethanolamine. The final densities on flow cells 2 and 3 were about 2,100 RU. The affinities of the various compounds for DC-SIGN ECD were evaluated via an established inhibition assay (Andreini et al., [2011]) in which DCSIGN ECD was injected at 20 μM alone or in the presence of increasing concentration of inhibitors. Injections were performed at 5 μL/min using 25 mM Tris-HCl pH 8, 150 mM NaCl, 4 mM CaCl2, 0.05% P20 surfactant as running buffer. The surface was regenerated by the injection of 50 mM EDTA. The data was analyzed in BIAcore BIAevaluation software using four parameter equation.

[2] = target: T2, DC-SIGN S-ECD (Homo sapiens, UniProt Q9NNX6); test: SPR direct interaction assay on oriented DC-SIGN S-ECD surface; assay type: binding; details: SPR direct interaction, oriented tetrameric DC-SIGN ECD surface, apparent Kd; read-out: Kdapp
T2 construct: The ECD of DC-SIGN (residues 66–404) was overexpressed and purified as previously described; made in house
T2 sequence (Q9NNX6 66-404): T1 sequence (Q9NNX6 66-404)
Protocol: as §1
The direct interaction experiments were executed on a T200 Biacore with a CM3 series S sensor chip. Contrary to the competition assay described above, in this test, DC-SIGN ECD used harbors a StreptagII in its N-terminus (DC-SIGN S-ECD) to allow its capture and functionalization onto the surface in an oriented manner. Flow cells were functionalized as previously described (Porkolab et al., [2019]). Briefly, after EDC/NHS activation, flow cells were functionalized with streptactin protein in a first step. Flow cell 1 was used as control, while other flow cells were, in a second round of activation, functionalized with 100 μg/mL of a DC-SIGN S-ECD up to a final density ranging between 2,500 and 3,000 RU, via tag specific capture and linkage by amine coupling chemistry simultaneously. The compounds were injected in running buffer of 25 mM Tris pH 8, 150 mM NaCl, 4 mM CaCl2, 0.05% Tween 20 onto the surface at increasing concentrations with a flow rate of 30 μL/min. The ligand titration led to the determination of an apparent Kd value. The data was analyzed in BIAcore BIAevaluation software for direct interaction 1:1 calculation assuming that the Kd will reflect the affinity of the ligands (glycoclusters) for the DC-SIGN oriented surface used as a whole.

[3] = system: moDCs; test: Internalization of biotinylated hexavalent clusters by moDCs (flow cytometry); assay type: cell-based, human
Protocol: For the internalization, the moDCs were incubated with clusters b6, c6, d6, and e6 for 1 h at 4°C, where after unbound ligands were washed away with ice-cold medium. Warm medium was added to the moDCs, and samples were taken at the indicated time points and put on ice. Upon staining the moDCs with fluorophore-conjugated streptavidin, we could measure the signal loss of the membrane via flow cytometry. To exclude ligand-receptor dissociation before internalization, the moDCs were fixed under gentle conditions, hereby inhibiting receptor-mediated endocytosis. On fixed moDCs the clusters remained at the surface, as no signal loss could be detected (Supplementary Figure 1D). […] The di-mannoside clusters (b6, c6, and d6) were internalized relatively fast, with a 50% uptake within 5 min (Figure 5B). The tri-mannoside cluster e6 however remained longer at the membrane surface and only a 25% uptake was seen after 30 min. Similar results were seen using a pH-sensitive fluorophore. In acidic environments, such as the endosomes and lysosomes, the fluorescence of this dye increases. Pre-complexed clusters mirrored the accelerated uptake of the di-mannoside clusters over the e6 cluster (Supplementary Figure 1E). Although the DC-SIGN mediated uptake mechanism is known (Cambi et al., [2009]), the initiation trigger for endocytosis upon DC-SIGN-ligand binding remains unclear. Recognition of the di-mannoside clusters could induce signaling leading to accelerated uptake, whereas the tri-mannoside cluster could trigger a different signaling pathway. Nonetheless, the clusters harboring the smaller mannosides are preferred. Although the binding affinity of the clusters ranged from 0.9 to 6.6 μM, the di-mannosides induce more rapid DC-SIGN internalization over the tri-mannosides, and can thus increase intracellular peptide concentrations more efficiently for further antigen processing and presentation.
Immature day 5 moDCs were harvested and washed with cold HBSS (Thermo Fischer), after which half of the moDCs were gently fixed for 20 min at RT with 1% PFA in PBS. Afterwards, 20 μM of the different biotinylated mannose-clusters in cold HBSS were added. The moDCs were incubated for 1 h on ice, and washed in cold HBSS. Subsequently, warm HBSS was added to the cells, and cells were incubated at 37°C in a shaking heating block. At the indicated time points, a sample of the cells was taken and put on ice. After the last time point, the cells were stained with Streptavidin-Alexa647 (Thermo Fisher), measured using flow cytometry (CyAn™ ADP with Summit™ Software), and further analyzed using FlowJo v10. The same procedure was used for internalization with pHrodo^TM Red Avidin (Thermo Fischer). The different biotinylated mannose-clusters were however incubated with pHrodo-Avidin (ratio 2:1) for 15 min at 37°C, prior to moDC exposure. The fluorescence upon internalization was measured using flow cytometry (BD LSRFortessa™ X-20 with FACSDiva Software), and further analyzed using FlowJo v10.

| IC50 [1] [µM] | Compound | further results |
| --- | --- | --- |
| 567.4 ± 1.15 | CC(=O)N[C@@H](CCCCn1cc(CO[C@H]2O[C@H](CO)[C@@H](O)[C@H](O[C@H]3O[C@H](CO)[C@@H](O)[C@H](O)[C@@H]3O)[C@@H]2O)nn1)C(=O)NCC(=O)N[C@@H](CCCCn1cc(CO[C@H]2O[C@H](CO)[C@@H](O)[C@H](O[C@H]3O[C@H](CO)[C@@H](O)[C@H](O)[C@@H]3O)[C@@H]2O)nn1)C(=O)NCC(=O)N[C@@H](CCCCN)C(N)=O [C2] |  |
| 171.9 ± 1.45 | CC(=O)N[C@@H](CCCCn1cc(CO[C@H]2O[C@H](CO)[C@@H](O)[C@H](O[C@H]3O[C@H](CO)[C@@H](O)[C@H](O)[C@@H]3O)[C@@H]2O)nn1)C(=O)NCC(=O)N[C@@H](CCCCn1cc(CO[C@H]2O[C@H](CO)[C@@H](O)[C@H](O[C@H]3O[C@H](CO)[C@@H](O)[C@H](O)[C@@H]3O)[C@@H]2O)nn1)C(=O)NCC(=O)N[C@@H](CCCCn1cc(CO[C@H]2O[C@H](CO)[C@@H](O)[C@H](O[C@H]3O[C@H](CO)[C@@H](O)[C@H](O)[C@@H]3O)[C@@H]2O)nn1)C(=O)NCC(=O)N[C@@H](CCCCN)C(N)=O [C3] |  |
| 6960 ± 3040 | CC(=O)N[C@@H](CCCCn1cc(CO[C@H]2O[C@H](CO[C@H]3O[C@H](CO)[C@@H](O)[C@H](O)[C@@H]3O)[C@@H](O)[C@H](O)[C@@H]2O)nn1)C(=O)NCC(=O)N[C@@H](CCCCN)C(N)=O [D1] |  |
| 410.9 ± 0.3 | CC(=O)N[C@@H](CCCCn1cc(CO[C@H]2O[C@H](CO[C@H]3O[C@H](CO)[C@@H](O)[C@H](O)[C@@H]3O)[C@@H](O)[C@H](O)[C@@H]2O)nn1)C(=O)NCC(=O)N[C@@H](CCCCn1cc(CO[C@H]2O[C@H](CO[C@H]3O[C@H](CO)[C@@H](O)[C@H](O)[C@@H]3O)[C@@H](O)[C@H](O)[C@@H]2O)nn1)C(=O)NCC(=O)N[C@@H](CCCCN)C(N)=O [D2] |  |
| 1520 ± 250 | CC(=O)N[C@@H](CCCCn1cc(CO[C@H]2O[C@H](CO[C@H]3O[C@H](CO)[C@@H](O)[C@H](O)[C@@H]3O)[C@@H](O)[C@H](O[C@H]3O[C@H](CO)[C@@H](O)[C@H](O)[C@@H]3O)[C@@H]2O)nn1)C(=O)NCC(=O)N[C@@H](CCCCN)C(N)=O [E1] |  |

The next lines start with the compound.

| Compound | IC50 [1] [µM] | further results |
| --- | --- | --- |
| CC(=O)N[C@@H](CCCCn1cc(CO[C@H]2O[C@H](CO)[C@@H](O)[C@H](O)[C@@H]2O)nn1)C(=O)NCC(=O)N[C@@H](CCCCn1cc(CO[C@H]2O[C@H](CO)[C@@H](O)[C@H](O)[C@@H]2O)nn1)C(=O)NCC(=O)N[C@@H](CCCCN)C(N)=O [A2] | 2600 ± 95 |  |
| CC(=O)N[C@@H](CCCCn1cc(CO[C@H]2O[C@H](CO)[C@@H](O)[C@H](O)[C@@H]2O)nn1)C(=O)NCC(=O)N[C@@H](CCCCn1cc(CO[C@H]2O[C@H](CO)[C@@H](O)[C@H](O)[C@@H]2O)nn1)C(=O)NCC(=O)N[C@@H](CCCCn1cc(CO[C@H]2O[C@H](CO)[C@@H](O)[C@H](O)[C@@H]2O)nn1)C(=O)NCC(=O)N[C@@H](CCCCN)C(N)=O [A3] | 736.7 ± 3.4 |  |
| CC(=O)N[C@@H](CCCCn1cc(CO[C@H]2O[C@H](CO)[C@@H](O)[C@H](O)[C@@H]2O[C@H]2O[C@H](CO)[C@@H](O)[C@H](O)[C@@H]2O)nn1)C(=O)NCC(=O)N[C@@H](CCCCN)C(N)=O [B1] | 2340 ± 109 |  |
| CC(=O)N[C@@H](CCCCn1cc(CO[C@H]2O[C@H](CO)[C@@H](O)[C@H](O)[C@@H]2O[C@H]2O[C@H](CO)[C@@H](O)[C@H](O)[C@@H]2O)nn1)C(=O)NCC(=O)N[C@@H](CCCCn1cc(CO[C@H]2O[C@H](CO)[C@@H](O)[C@H](O)[C@@H]2O[C@H]2O[C@H](CO)[C@@H](O)[C@H](O)[C@@H]2O)nn1)C(=O)NCC(=O)N[C@@H](CCCCN)C(N)=O [B2] | 189 ± 3.45 |  |
| CC(=O)N[C@@H](CCCCn1cc(CO[C@H]2O[C@H](CO)[C@@H](O)[C@H](O[C@H]3O[C@H](CO)[C@@H](O)[C@H](O)[C@@H]3O)[C@@H]2O)nn1)C(=O)N[C@@H](CCCCn1cc(CO[C@H]2O[C@H](CO)[C@@H](O)[C@H](O[C@H]3O[C@H](CO)[C@@H](O)[C@H](O)[C@@H]3O)[C@@H]2O)nn1)C(=O)N[C@@H](CCCCn1cc(CO[C@H]2O[C@H](CO)[C@@H](O)[C@H](O[C@H]3O[C@H](CO)[C@@H](O)[C@H](O)[C@@H]3O)[C@@H]2O)nn1)C(=O)N[C@@H](CCCCn1cc(CO[C@H]2O[C@H](CO)[C@@H](O)[C@H](O[C@H]3O[C@H](CO)[C@@H](O)[C@H](O)[C@@H]3O)[C@@H]2O)nn1)C(=O)N[C@@H](CCCCn1cc(CO[C@H]2O[C@H](CO)[C@@H](O)[C@H](O[C@H]3O[C@H](CO)[C@@H](O)[C@H](O)[C@@H]3O)[C@@H]2O)nn1)C(=O)N[C@@H](CCCCn1cc(CO[C@H]2O[C@H](CO)[C@@H](O)[C@H](O[C@H]3O[C@H](CO)[C@@H](O)[C@H](O)[C@@H]3O)[C@@H]2O)nn1)C(=O)NCC(=O)N[C@@H](CCCCN)C(N)=O [C6] |  | Kd [2]: 1.17 µM; internalization by moDCs (loss of surface streptavidin signal) ([3]; 20 μM cluster, live moDCs): rapidly internalized; internalization by moDCs (pHrodo-avidin fluorescence increase) ([3]; clusters pre-complexed with pH-sensitive dye): internalized rapidly; uptake by immature moDCs ([3]; within 5 min at 37°C, 20 μM cluster): 50% |
